Experimental data reported in publication PMC10716780, “The multistep oxidation of cholesterol to pregnenolone by human cytochrome P450 11A1 is highly processive” (The Journal of Biological Chemistry, 2023).

Legend:
[1] = tested on: bovine P450 11A1; design: method as in PMID 217878; conditions: equilibrium dialysis, bovine P450 11A1 ref 26; cited from earlier work
[2] = biological target: T1, human P450 11A1 (Homo sapiens, UniProt P05108); assay: Single-turnover kinetics of P450 11A1 with [1,2-3H]-cholesterol (radio-HPLC); type: biochemical; design: M A S T R S P R P F N E I P S P G D N; Met-Ala (N-terminal start residues in place of the transit peptide and Ile40) (N); made in house; host or cells: E. coli (P450 11A1 in C41(DE3); Adx and AdR in E. coli)
T1 sequence (P05108 41-521 limits assumed): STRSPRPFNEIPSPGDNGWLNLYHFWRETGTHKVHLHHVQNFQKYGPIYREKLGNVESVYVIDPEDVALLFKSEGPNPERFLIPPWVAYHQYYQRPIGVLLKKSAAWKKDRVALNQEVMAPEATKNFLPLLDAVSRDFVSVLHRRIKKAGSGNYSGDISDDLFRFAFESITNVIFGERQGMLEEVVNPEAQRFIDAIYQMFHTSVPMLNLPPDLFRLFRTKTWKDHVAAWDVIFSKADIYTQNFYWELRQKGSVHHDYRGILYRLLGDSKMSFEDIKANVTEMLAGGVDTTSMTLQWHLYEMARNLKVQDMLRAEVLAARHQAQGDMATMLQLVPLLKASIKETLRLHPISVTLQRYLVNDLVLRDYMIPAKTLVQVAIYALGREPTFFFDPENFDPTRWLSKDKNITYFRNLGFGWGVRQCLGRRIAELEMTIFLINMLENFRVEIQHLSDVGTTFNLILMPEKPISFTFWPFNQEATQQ
T1 sequence (P00257 59-186 partner): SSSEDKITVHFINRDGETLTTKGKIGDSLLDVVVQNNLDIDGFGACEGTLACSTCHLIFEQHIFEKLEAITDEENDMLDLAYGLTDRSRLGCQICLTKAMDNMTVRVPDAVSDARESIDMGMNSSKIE
Description: In this reaction, a 5 μM complex of P450 11A1 and 4.5 μM cholesterol was assembled, and Adx was added at either equimolar (low, 5 μM) or 10-fold excess (high, 50 μM) concentrations (along with 10 μM AdR). The complex was diluted 2-fold (with 5 mM NADPH) in the apparatus to initiate the reaction, which was quenched at variable times. The products of the reaction were extracted and quantified by radio-HPLC. […] (The analysis of kinetic modeling is described below.)
P450 11A1 (5 μM) was reconstituted with its redox partners AdR (10 μM) and Adx (5 μM) on ice (10 min) prior to dilution in potassium Hepes buffer (50 mM, pH 7.4) and H2O and the addition of ^3H-cholesterol substrate (4.5 μM, 0.5 Ci/mmol). The concentration of substrate was deliberately kept slightly below the enzyme concentration to ensure that single-turnover conditions were strictly followed. The mixture (0.75 ml) was preincubated (37 °C, 5 min) in a shaking water bath prior to initiation with an equal volume of NADPH solution (5 mM, from a 10 mM stock in 50 mM potassium Hepes buffer, pH 7.4), thus reducing the concentrations of all enzymes and substrate to one-half their starting concentrations. After completing the desired incubation time, an aliquot (200 μl) was removed from the incubation and added to vials containing aqueous HCl (800 μl, 1 M). The quenched reactions were mixed with a vortex device and placed on ice. When the time course was complete, the quenched reactions were mixed with CH2Cl2 (5 ml) to extract reaction products and were centrifuged (10^3g, 5 min, 23 °C) to separate layers, and the organic (bottom) layers were transferred (4 ml) to fresh glass vials. The extraction process was repeated and the two extracts (2 × 4 ml) from each sample were combined to maximize product recovery. Samples (8 ml) were brought to dryness under a stream of nitrogen, and the dried residues were dissolved in CH3OH (75 μl) and transferred to autosampler vials for analysis by radio-HPLC.
Enzyme and NADPH solutions were prepared as described for the benchtop experiments (above) but with the modification that the concentration of Adx was increased to 50 μM (from 5 μM). […] The rapid quench-flow is a rapid mixing device that combines equal volumes (∼19 μl) of two solutions (P450 and NADPH, held at 37 °C) into a central internal chamber to initiate a reaction. After the preset reaction time is completed, the mixture (∼38 μl) is then rapidly combined with a quench solution (1 M HCl, ∼160 μl), expelled from the apparatus, and collected in vials. Utilizing this experimental design, the reaction of enzyme-substrate complex (P450 11A1-Adx-AdR and ^3H-cholesterol) was initiated with NADPH on a variable timescale (0–90 s), pooling five replicates of each time point to maximize sensitivity. The products of each quenched reaction (∼1 ml) were extracted with two volumes (5 ml) of CH2Cl2, brought to dryness, and dissolved in CH3OH as described for the benchtop experiments.
Samples (held at 4 °C) were injected (50 μl) using a Agilent 1100 Series HPLC system on a NovaPak (Waters) octadecylsilane (C18) 3.9 mm × 100 mm (4 μm) column (held at 25 °C) with a flow rate of 1.0 ml min^−1 using a gradient mobile phase of (A) H2O and (B) CH3CN as follows (all in % B, v/v): 0 min, 70%; 10 min, 100%; 35.5 min, 100%; 37 min, 30%; and 40 min, 70%).

CC(C)CC[C@@H](O)[C@@H](C)[C@H]1CC[C@H]2[C@@H]3CC=C4C[C@@H](O)CC[C@]4(C)[C@H]3CC[C@]12C [22R-OH Chol, 22R-hydroxycholesterol]
Kd [1]: 4.9 nM | concentration in single-turnover reaction ([2]; 10-fold excess (high) Adx, time 0 s): 0 µM | concentration in single-turnover reaction ([2]; 10-fold excess (high) Adx, time 0.25 s): 0.1665 µM | concentration in single-turnover reaction ([2]; 10-fold excess (high) Adx, time 0.5 s): 0.3411 µM | concentration in single-turnover reaction ([2]; 10-fold excess (high) Adx, time 0.75 s): 0.2577 µM | concentration in single-turnover reaction ([2]; 10-fold excess (high) Adx, time 1 s): 0.2098 µM | concentration in single-turnover reaction ([2]; 10-fold excess (high) Adx, time 2 s): 0.2144 µM | concentration in single-turnover reaction ([2]; 10-fold excess (high) Adx, time 2.5 s): 0.1649 µM | concentration in single-turnover reaction ([2]; 10-fold excess (high) Adx, time 3.5 s): 0.1652 µM | concentration in single-turnover reaction ([2]; 10-fold excess (high) Adx, time 5 s): 0.1576 µM | concentration in single-turnover reaction ([2]; 10-fold excess (high) Adx, time 6 s): 0.1666 µM | concentration in single-turnover reaction ([2]; 10-fold excess (high) Adx, time 7.5 s): 0.1648 µM | concentration in single-turnover reaction ([2]; 10-fold excess (high) Adx, time 10 s): 0.1591 µM | concentration in single-turnover reaction ([2]; 10-fold excess (high) Adx, time 15 s): 0.1351 µM | concentration in single-turnover reaction ([2]; 10-fold excess (high) Adx, time 20 s): 0.101 µM | concentration in single-turnover reaction ([2]; 10-fold excess (high) Adx, time 30 s): 0.09739 µM | concentration in single-turnover reaction ([2]; 10-fold excess (high) Adx, time 45 s): 0.06928 µM | concentration in single-turnover reaction ([2]; 10-fold excess (high) Adx, time 60 s): 0.06822 µM | concentration in single-turnover reaction ([2]; 10-fold excess (high) Adx, time 90 s): 0.05063 µM | concentration in single-turnover reaction ([2]; second table, headed 10-fold excess (high) Adx, time 0 s): 0 µM | concentration in single-turnover reaction ([2]; second table, headed 10-fold excess (high) Adx, time 10 s): 0.2262 µM | concentration in single-turnover reaction ([2]; second table, headed 10-fold excess (high) Adx, time 25 s): 0.1763 µM | concentration in single-turnover reaction ([2]; second table, headed 10-fold excess (high) Adx, time 50 s): 0.1172 µM | concentration in single-turnover reaction ([2]; second table, headed 10-fold excess (high) Adx, time 75 s): 0.06255 µM | concentration in single-turnover reaction ([2]; second table, headed 10-fold excess (high) Adx, time 100 s): 0 µM | concentration in single-turnover reaction ([2]; second table, headed 10-fold excess (high) Adx, time 200 s): 0 µM | concentration in single-turnover reaction ([2]; second table, headed 10-fold excess (high) Adx, time 500 s): 0 µM
